Reference: patent publication US20250090614A1, “COMPOSITIONS AND METHODS FOR IMPROVING LUNG FUNCTION” (priority 2023, published 2025)

Legend:
[1] = test system: old C57b1/6 mice; experiment: Transdiaphragmatic pressure (Pdimax) in aged mice; type: in vivo, mouse; conditions: aged C57BL/6 mice, anesthetized, eupnoea, 25 mg/kg p.o. each substance, 90 days
Protocol: The experiments were performed in old C57b1/6 mice (28-30 weeks). Table 1 discloses the groups of mice used for the experimentation. C57BL/6 mice were bred and naturally aged in a pathogen-free colony. Mice were group-housed six per cage for the treatment regimen and maintained on a 12-hr light-dark schedule with ad libitum access to food and water. All experiments were designed according to the principles of animal use for gerontological research (Miller, R. A., & Nadon, N. L. (2000). Principles of animal use for gerontological research. Journals of Gerontology. Series A, Biological Sciences and Medical Sciences, 55, B117-B123) [table] […] The respiratory muscle function in the study animals was assessed by estimating the Tidal Volume, Minute ventilation, Transdiaphragmatic pressure ([…]) and Respiratory rate. […] Anesthetized mice were monitored continually for temperature, oxygen saturation, and heart rate. Palpebral reflex and pain response were monitored to ensure depth of anaesthesia. […] Spontaneous ventilation was maintained, the abdomen was bound, and Pdi was recorded using solid-state pressure catheters. […] The pressure data were collected using a PowerLab 8/35 data-acquisition system and analyzed using LabChart ([…]., & Mantilla, C. B. (2013). Novel method for transdiaphragmatic pressure measurements in mice. Respiratory Physiology & Neurobiology, 188, 56-59)

[2] = test system: Immunoglobulin A (IgA); experiment: IgA ELISA in bronchoalveolar lavage fluid of aged mice; type: in vivo, mouse; conditions: aged C57BL/6 mice, 25 mg/kg p.o. each substance, 90 days
Protocol: The experiments were performed in old C57b1/6 mice (28-30 weeks). Table 1 discloses the groups of mice used for the experimentation. C57BL/6 mice were bred and naturally aged in a pathogen-free colony. Mice were group-housed six per cage for the treatment regimen and maintained on a 12-hr light-dark schedule with ad libitum access to food and water. All experiments were designed according to the principles of animal use for gerontological research (Miller, R. A., & Nadon, N. L. (2000). Principles of animal use for gerontological research. Journals of Gerontology. Series A, Biological Sciences and Medical Sciences, 55, B117-B123) [table] The above test substances were administered to the mice for a period of 90 days. Rapamycin was used as a positive control. After 90 days of administration experiments were performed to assess the respiratory muscle function, anatomical changes, cellular senescence and immunological changes. Bronchoalveolar lavage (BAL) fluids in healthy older subjects have consistently shown an increased proportion of neutrophils and lower percentage of macrophages compared with younger adults. There is age-associated decline in immunoglobins IgA and IgM. […] Immunoglobulin A (IgA) is the most abundant Ig in mucosac where it plays key roles in host defense against pathogens and in mucosal immunoregulation. […]

O=C(/C=C/c1ccc(O)c(O)c1)O[C@H](Cc1ccc(O)c(O)c1)C(=O)O [Rosmarinic acid]
Transdiaphragmatic pressure (Pdimax) [1]: increase
expression of IgA [2]: increased
